# Laboratory results: the supplement of paper PMC6723410
# Tested on: GUMC-403
# Assay: viability at highest tested concentration (max response) relative to DMSO (% of DMSO control); higher = less cytotoxic
# Details: library / dose series: MIPE library, 11-point 1:3 dilution; top concentration 23 µM; 48 h
# How it was run: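 GUMC-403 papilloma cells, derived from a patient and expanded by conditional reprogramming, were dispensed at 700/well into 1536-well plates in 5 μL F + Y medium. A pin tool delivered 23 nL of each compound across an 11-point 1:3 dilution series for 48 h. CellTiter-Glo luminescence, read on a ViewLux, was normalised so that vehicle wells equalled 100% and empty wells 0%. Values report viability at the highest tested concentration relative to vehicle control.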
row,Compound,viability
1,CN[C@@H]1CN(C[C@H]1OC)C2=NC3=C(C=C2)C(=O)C(=C\N3C4=NC=CS4)/C(O)=O,94.4

# Same assay, conditions: library / dose series: MIPE library, 11-point 1:3 dilution; top concentration 34.6 µM; 48 h
row,Compound,viability
1,Nc1ncnc2c1ncn2[C@@H]1O[C@@H](CO)[C@H](O)[C@@H]1O,118

# Same assay, conditions: library / dose series: MIPE library, 11-point 1:3 dilution; top concentration 46.1 µM; 48 h
row,Compound,viability
1,Cc1c(N)nc([C@H](CC(N)=O)NC[C@@H](N)C(N)=O)nc1C(=O)N[C@H](C(=O)N[C@@H](C)[C@H](O)[C@@H](C)C(=O)N[C@@H](C(=O)NCCc1nc(-c2nc(C(=O)NCCC[S+](C)C)cs2)cs1)[C@@H](C)O)C(O[C@H]1O[C@H](CO)[C@H](O)[C@@H](O)[C@H]1O[C@H]1O[C@H](CO)[C@@H](O)[C@H](OC(N)=O)[C@@H]1O)c1c[nH]cn1 (stereo partly specified),84.5
2,CCOc1cc(/C=C2/C(=O)N(c3ccccc3)N=C2C)cc(Cl)c1OCC(=O)OC,99.2
3,C=C[C@H]1CN2CCC1C[C@H]2[C@H](O)c1ccnc2ccc(OC)cc12 (stereo partly specified),98.4
4,COc1ccc(C(=O)c2c(C)n(CCN3CCOCC3)c3ccccc23)cc1,122
5,NC(=O)Nc1cc(-c2ccc(CN3CCOCC3)cc2)sc1C(N)=O,70.6
6,OC[C@@H](O)[C@@H](O)[C@H](O)[C@@H](O)CO,128
7,COc1cc2c(Oc3ccc(NC(=O)C4(C(=O)Nc5ccc(F)cc5)CC4)cc3F)ccnc2cc1OCCCN1CCOCC1,23.1
8,OC[C@H]1O[C@@H](Oc2cc(O)cc(/C=C/c3ccc(O)cc3)c2)[C@H](O)[C@@H](O)[C@@H]1O,128
9,CCOC(=O)Nc1ccc(NCc2ccc(F)cc2)cc1N,81.8
10,COc1c(C)c2c(c(O)c1C/C=C(\C)CCC(=O)OCCN1CCOCC1)C(=O)OC2,112
11,Cc1ccccc1C(=O)c1ccc(Nc2ccc(Br)cc2N)cc1Cl,103
12,COc1ccc(OC)c(-c2nnc3ccc(-c4ccc(OC)c(O[C@@H]5CCOC5)c4)nn23)c1,4.61
13,O=C(C=CC#Cc1cccc(N[S+](=O)([O-])c2ccccc2)c1)NO,108
14,COc1ccc2cc3[n+](cc2c1OC)CCc1cc2c(cc1-3)OCO2,99.7
15,COc1cccc2c1C(=O)c1c(O)c3c(c(O)c1C2=O)C[C@@](O)(C(=O)CO)C[C@@H]3O[C@H]1C[C@H](N)[C@H](O[C@H]2CCCCO2)[C@H](C)O1,57.9
16,OCCC#Cc1nc(-c2ccc(F)cc2)c(-c2ccncc2)n1CCCc1ccccc1,64
17,C[C@H](NC(=O)Cc1cc(F)cc(F)c1)C(=O)N[C@H](C(=O)OC(C)(C)C)c1ccccc1,79.4
18,CCCC(C)(COC(N)=O)COC(=O)NC(C)C (stereo unspecified),117
19,CCOC(=O)N1CCN(/[N+]([O-])=N/Oc2ccc([N+](=O)[O-])cc2[N+](=O)[O-])CC1,118
20,CC1(C)[C@@H](O[C@H]2O[C@H](C(=O)O)[C@@H](O)[C@H](O)[C@H]2O[C@@H]2O[C@H](C(=O)O)[C@@H](O)[C@H](O)[C@H]2O)CC[C@]2(C)[C@H]3C(=O)C=C4[C@@H]5C[C@@](C)(C(=O)O)CC[C@]5(C)CC[C@@]4(C)[C@]3(C)CC[C@@H]12,115
21,COC(=O)C[C@](O)(CCCC(C)(C)O)C(=O)O[C@@H]1C(OC)=CC23CCCN2CCc2cc4c(cc2[C@H]13)OCO4 (stereo partly specified),140
22,O=C(Nc1ncc(SCCN2CCCC2)s1)[C@]1(c2ccc([S+](=O)([O-])C3CC3)cc2)C[C@H]1C1CCCCC1,108
23,Cc1ccnc2c1NC(=O)c1cccnc1N2C1CC1,138

row,Compound,viability
1,CCOc1cc(N)c(Cl)cc1C(=O)NCC1CN(Cc2ccc(F)cc2)CCO1 (stereo unspecified),85.7
2,CCOC(=O)[C@H]1O[C@@H]1C(=O)N[C@@H](CC(C)C)C(=O)NCCC(C)C,109
3,CC(C)(O)/C=C\C(=O)[C@](C)(O)[C@H]1[C@H](O)C[C@]2(C)[C@@H]3CC=C4[C@@H](C=C(O)C(=O)C4(C)C)[C@]3(C)C(=O)C[C@@]12C,83.7
4,Cc1ccc(C(=O)Nc2ccc([S+](=O)([O-])O)c3cc([S+](=O)([O-])O)cc([S+](=O)([O-])O)c23)cc1NC(=O)c1cccc(NC(=O)Nc2cccc(C(=O)Nc3cc(C(=O)Nc4ccc([S+](=O)([O-])O)c5cc([S+](=O)([O-])O)cc([S+](=O)([O-])O)c45)ccc3C)c2)c1,123
5,CC(=O)N[C@@H]1[C@@H](NC(N)=N)\C=C(/O[C@H]1[C@H](O)[C@H](O)CO)C(O)=O,129
6,CN[C@@H]1Cc2cccc3[nH]c(=O)n(c23)C1,112
7,CC[C@H]1/C=C\C=C/C[C@@H](C)[C@H](O)[C@@](C)(O)C(=O)[C@@H](C)[C@H](O)[C@@H](C)C(=O)[C@@H](C)[C@H](O)[C@@H](C)/C=C/C(=O)O[C@@H]2[C@H](C)[C@H](CC1)O[C@]1(CC[C@H](C)[C@H](C[C@@H](C)O)O1)[C@H]2C,146
8,CCC[C@H]1C[C@H](C(=O)N[C@@H]([C@@H]2O[C@@H](SC)[C@@H](O)[C@@H](O)[C@H]2O)[C@H](C)Cl)N(C)C1,118
9,Clc1ccc(C2(c3ccc(-c4cn[nH]c4)cc3)CCNCC2)cc1,59.9
10,CC(=O)N1CCN(c2ccc(OC[C@H]3CO[C@](Cn4ccnc4)(c4ccc(Cl)cc4Cl)O3)cc2)CC1,104
11,CCOc1ccc(Nc2nc(-c3c(C)nc4ccccn34)cs2)cc1,101
12,c1ccc2[nH]c(-c3cscn3)nc2c1,124
13,O=C1c2cccc(O)c2C(=O)c2c(O)cc(CO)cc21,92.9
14,CN1[C@@H]2CC[C@H]1CC(OC(=O)c1c[nH]c3ccccc13)C2 (stereo partly specified),134
15,COCCCOc1ccnc(C[S+]([O-])c2nc3ccccc3[n-]2)c1C (stereo unspecified),120
16,CCOC(=O)C/1=C(O)/C(=O)N(CC2=CC=CC=C2)C1,136
17,CCn1cc(-c2ccnc3[nH]c(-c4cccc(CN(C)C)c4)cc23)c(-c2ccc(NC(=O)N(C)C)cc2)n1,54.6
18,OC1=CC2=C(C(=O)\C=C(/O2)C3=CC=CC=C3)C(=C1O)O,114
19,OC(=O)\C1=C\N(C2CC2)C3=CC(=C(F)C=C3C1=O)N4CCNCC4,105
20,Fc1ccc([C@@H]2CCNC[C@H]2COc2ccc3c(c2)OCO3)cc1,97.2
21,CC(=O)C1=C(O)C2(C)C(=CC1=O)Oc1c(C(C)=O)c(O)c(C)c(O)c12 (stereo unspecified),143
22,Cc1ccc2c(c1)c1c(n2CCc2ccc(C)nc2)CCN(C)C1,108
23,CCCC1OC2C[C@H]3[C@@H]4CCC5=CC(=O)C=C[C@]5(C)[C@H]4C(O)C[C@]3(C)[C@]2(C(=O)CO)O1 (stereo partly specified),121

row,Compound,viability
1,Cl.c1cnc2cc3c(cc2n1)C1CNCC3C1,107
2,CC(N)C12CC3CC(CC(C3)C1)C2 (stereo unspecified),104
3,Cc1cc(Nc2nc(N[C@@H](C)c3ccc(F)cc3)c(C#N)cc2F)n[nH]1,65.1
4,CCCCCCCCCC(=O)N[C@@H](Cc1c[nH]c2ccccc12)C(=O)N[C@H](CC(N)=O)C(=O)N[C@@H](CC(=O)O)C(=O)N[C@@H]1C(=O)NCC(=O)N[C@@H](CCCN)C(=O)N[C@@H](CC(=O)O)C(=O)N[C@H](C)C(=O)N[C@@H](CC(=O)O)C(=O)NCC(=O)N[C@H](CO)C(=O)N[C@@H]([C@@H](C)CC(=O)O)C(=O)N[C@@H](CC(=O)c2ccccc2N)C(=O)O[C@@H]1C,101
5,COc1ccc(COc2cc3oc(=O)c4cc(C(C)O)ccc4c3cc2OC)cc1 (stereo unspecified),86.3
6,CO[C@@H](C(=O)N1Cc2[nH]nc(NC(=O)c3ccc(N4CCN(C)CC4)cc3)c2C1)c1ccccc1,63.5
7,CCN1C[C@]2(OC(=O)c3ccccc3NC(C)=O)CC[C@H](OC)[C@@]34[C@@H]2C[C@@H]([C@@H]13)[C@@]1(O)C[C@H](OC)[C@H]2C[C@@H]4[C@]1(O)[C@H]2OC,139
8,Cc1cc2c(cc1C1(c3ccc(C(=O)O)cn3)CC1)C(C)(C)CCC2(C)C,129
9,O=P1(N(CCCl)CCCl)NCCCO1 (stereo unspecified),116
10,CC1(C)NC(=O)N(c2ccc([N+](=O)[O-])c(C(F)(F)F)c2)C1=O,75.8
11,COc1cc(N2CCC(N3CCN(C)CC3)CC2)ccc1Nc1ncnc(Nc2ccccc2[S+](=O)([O-])C(C)C)n1,49.4
12,CN(C)c1ccc(-c2nc3c(N4CCN(CC(=O)Nc5nccs5)CC4)c(Cl)cnc3[nH]2)cc1,110
13,O=C(NOCC(O)CO)c1cc(Br)c(F)c(F)c1Nc1ccc(I)cc1F (stereo unspecified),62.8
14,CN(C[C@@H]1COCCO1)[S+]([O-])(=O)NC2=CC3=C(C=C2)\C=C/C4=C(C=C(C=N4)C5=C[N](C)N=C5)C3=O,114
15,CN1C(=O)/C(=C(NC2=CC=C(I)C=C2F)\C3=C1\N=C/N(C[C@@H](O)CO)C3=O)F,28.9
16,CC(C)(OCc1nn(Cc2ccccc2)c2ccccc12)C(=O)O,113
17,CCO[C@@H]1OC(=O)C[C@@H]1NC(=O)[C@@H]1CCCN1C(=O)[C@@H](NC(=O)c1ccc(N)c(Cl)c1)C(C)(C)C,138
18,C[C@@H]1CC[C@@]2(OC1)OC1CC3C4CC=C5CC(O)CCC5(C)C4CCC3(C)C1[C@@H]2C (stereo partly specified),120
19,CCCN1CCO[C@@H]2c3cc(O)ccc3OC[C@H]21,102
20,COC1=CC=C2C(=CC=NC2=C1)OC3=CC=C(NC(=O)\C4=C(C)\N(CC(C)(C)O)N(C4=O)C5=CC=CC=C5)C=C3F,80.3
21,CCOC(=O)[C@@H](N)CCC(=O)N[C@@H](CSCc1ccccc1)C(=O)N[C@@H](C(=O)OCC)c1ccccc1,95.5
22,COc1ccccc1[C@H](c1cccc2ccccc12)[C@@](C)(C#N)C(=O)N1CCC(c2cccc(C(F)(F)F)c2)CC1,86.3

# Same assay, conditions: library / dose series: MIPE library, 11-point 1:3 dilution; top concentration 92.2 µM; 48 h
row,Compound,viability
1,Nc1ccn([C@H]2CS[C@@H](CO)O2)c(=O)n1,106
